Here are results for 3 compounds from patent US7947854B2, “Bis-cationic compounds and use thereof” (The University of Sydney, priority 2003, dated 2011).

Where “and” joins values, the source holds several entries; their conditions need not be identical. Equal values may be shown once.

Test [1] relates to Candida albicans ATCC 10231. Briefly: In vitro antifungal activity, yeasts, NCCLS M27-A. Format: cell-based. The following applies: Candida albicans, ATCC10231; Table 9. From the text:
(§1) The assay used for yeasts (Candida; Cryptococcus) is that of the National Committee for Clinical Laboratory Standards. 1997. Reference Method for Broth Dilution Antifungal Susceptibility Testing of Yeasts: Approved Standard. NCCLS document M27-A.Villanova, Pa., USA as published in Ghannoum, M. A., A. S. Ibrahim, Y. Fu, M. C. Shafiq, J. E Edwards, Jr. and R. S. Criddle. 1992. Susceptibility testing of Cryptococcus neoformans: A microdilution technique. J. Clin. Microbiol. 30:2881-2886.

Test [2] deals with Cryptococcus neoformans ATCC 90112. Briefly: In vitro antifungal activity, yeasts, NCCLS M27-A. The following applies: Cryptococcus neoformans, ATCC90112; Table 9. In kind it is cell-based.
Source text: as §1

Test [3] deals with membrane-associated phospholipase B (PLB activity). Briefly: Radiometric assay, membrane-associated PLB activity. Format: biochemical, Cryptococcus neoformans H99. The note with it: pH 4. The method, then: Fungal isolates and media. […] Isolate H99 was kindly supplied by Dr. Gary Cox (Duke University Medical Center, Durham, N.C., USA), and subcultured onto Sabouraud dextrose agar (SDA) at 30° C.
Cellular disruption to prepare membrane and cytosolic fractions. The cell pellet from the preparation of the supernatant, above, was also frozen at −70° C. After washing twice with imidazole buffer, it was disrupted in the presence of a protease inhibitor cocktail (P 8215 for fungal and yeast cells; 4-(2-aminoethyl)benzenesulfonyl fluoride hydrochloride, 100 mM, 1,10-phenanthroline, 500 mM, pepstatin A, 2.2 mM, E-64, 1.4 mM; Sigma) in a MiniBeadbeater-8 Cell Disrupter (MBB-8; Daintree Scientific, Tasmania, Australia) for three cycles of 1 min, alternating with a 1 min cooling period on ice. The homogenate was centrifuged at 14,000 g for 15 min to obtain the membrane (pellet) and the cytosolic (supernatant) fractions.
Radiometric assay method for phospholipases. Enzyme activities were measured as described previously in a final volume of 125 μL at 37° C. For the determination of secreted PLB activity, carrier dipalmitoyl phosphatidylcholine (DPPC, final concentration 800 μM) and 1,2-di[1-^14C] palmitoyl phosphatidylcholine (20,000 dpm) were dried under nitrogen and suspended in 125 mM imidazole acetate buffer (assay buffer, pH 4.0) by sonication using a Branson 450 sonifier. The reaction time was 22 min, using 1 μg total protein and PLB activity was determined by the rate of decrease of the radiolabelled PC substrate, with appearance of the label in free fatty acid. This assay also simultaneously allows for the determination of phospholipase A, C and D activities. These activities were measured by the appearance of radiolabel from PC in Lyso PC, diacylglycerol and phosphatidic acid, respectively.
All reactions were terminated by adding 0.5 mL of chloroform:methanol (2:1 v/v). The reaction products were extracted by the method as disclosed in Bligh, E. C. and W. J. Dyer. 1959 ‘A rapid method of total lipid extraction and purification.’ Can. J. Biochem. Physiol. 37:911-917, separated by TLC and quantified as previously described. In the case of PLC activity, the TLC plates were developed in petroleum ether (BP 60-80° C.): diethyl ether: acetic acid (90:15:1, v/v/v) instead of chloroform:methanol:water (65:25:4, v/v/v).
All experiments were carried out in duplicate or triplicate. The effects of pH on the various phospholipase activities were measured using 50 mM final concentration of imidazole-acetate buffer (pH range 3-5), MES buffer (pH range 6-8) and glycine buffer (pH 9-10). Controls for non-enzymic breakdown of substrates were included at all pH values. Cations, Triton X-100 and metal chelators were made up as stock solutions in water and diluted to the final concentration in the appropriate assay buffer.
Preparation of inhibitors and use in assays. The following compounds were tested (for structures, see FIG. 2): compound 1, 1,12-bis(tributylphosphonium)dodecane dibromide (Fluka AG, Buchs, Switzerland); compound 2, 1,10-bis(tributylammonium)-decane dibromide; compound 3, 1,12-bis(tributylammonium)do-decane dibromide (both synthesised in-house); compound 4, 1,10-bis(trimethylammonium)decane dibromide [“decamethonium”] (Sigma, St. Louis Mo., USA). All compounds were prepared as stock solutions of 700 μM in assay buffer containing 5 mM EDTA, which was then diluted serially with buffer to obtain solutions of 70, 7, 0.7 and 0.07 μM. In each assay, 45 μL of these solutions was used, and the final volume of 125 μL was made up of substrate, enzyme and buffer. The radiometric assay was carried out as above.

The subject of test [4] is C. albicans (ATCC10231) phospholipases. As to the kind of experiment: Inhibition of C. albicans phospholipases. In kind it is biochemical.

Regarding `CCCC[N+](CCCC)(CCCC)CCCCCCCCCCCC[N+](CCCC)(CCCC)CCCC` [1,12-Bis-(tributylammonium)dodecane dichloride], the MIC in test [1] was 2.6 µg/mL and 4.4 µM; in test [2] it was 1.3 µg/mL and 2.2 µM.
On to `CCCC[P+](CCCC)(CCCC)CCCCCCCCCCCC[P+](CCCC)(CCCC)CCCC` [Compound 1, 1,12-bis(tributylphosphonium)dodecane dibromide], for which the “% Inhibition PLB, Membrane-bound Enzyme” value in test [3] (2.5 μM), in test [3] (25 μM) and in test [3] (250 μM) was 0% each time.
On to `CCCC[N+](CCCC)(CCCC)CCCCCCCCCCCC[N+](CCCC)(CCCC)CCCC` [Compound 3, 1,12-bis(tributylammonium)do-decane dibromide], for which the “inhibition of C. albicans (ATCC10231) phospholipases, in words” value in test [4] is on record as “inhibits”.

By MIC is commonly meant the smallest concentration in the dilution series that meets the test's criterion for growth inhibition.
